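Cells were grown in 96-well plates and exposed to each compound for 48 hours at five concentrations; endpoints were interpolated linearly between bracketing concentrations, or set to the highest concentration if not reached. GI50: concentration for 50% inhibition of growth.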 The source made the active and inactive calls. Rule as the data show it: active = GI50 up to about 1.1 µM and inactive = higher.
Assays:
Test in all cases: inhibition of tumour cell growth, NCI panel, 48 h
[1] = test system: SNB-19
[2] = test system: M19-MEL
[3] = test system: RXF 393
[4] = test system: DMS-273
[5] = test system: KM-20L2
[6] = test system: OVCAR-3
[7] = test system: TK-10
[8] = test system: UACC-62
[9] = test system: Malme-3M
[10] = test system: HL-60
[11] = test system: SF-268
[12] = test system: XF498
[13] = test system: A549
[14] = test system: SK-MEL-28
[15] = test system: CCRF-CEM
[16] = test system: DMS-114
[17] = test system: M14
[18] = test system: DLD-1
[19] = test system: A498
[20] = test system: HCC 2998
[21] = test system: SF-295
[22] = test system: HCT-15
[23] = test system: LOX IMVI
[24] = test system: OVCAR-4
[25] = test system: SF-539
[26] = test system: OVCAR-5
[27] = test system: UO-31
[28] = test system: UACC-257
[29] = test system: COLO 205
[30] = test system: KM12
[31] = test system: SK-MEL-5
[32] = test system: NCI-H522
[33] = test system: SN12C
[34] = test system: HCT-116
[35] = test system: HOP-92
[36] = test system: U-251
[37] = test system: SK-OV-3
[38] = test system: HT-29
[39] = test system: MOLT-4
[40] = test system: NCI-H226
[41] = test system: ACHN
[42] = test system: LXFL 529
[43] = test system: SW-620
[44] = test system: 786-0
[45] = test system: K562
[46] = test system: EKVX
[47] = test system: HOP-62
[48] = test system: SNB-75
[49] = test system: CAKI-1
[50] = test system: SNB-78
[51] = test system: IGROV-1
[52] = test system: OVCAR-8
[53] = test system: NCI-H23
[54] = test system: RPMI-8226
[55] = test system: NCI-H460

With `COC(=O)C1[C@H](c2cc(OC)c(OC)c(OC)c2)OC(=O)C1(C(=O)OC)C(=O)c1ccc2c(c1)OCO2` (stereo not given in full) the GI50 [1] was > 100 µM (inactive), the GI50 [2] was > 100 µM (inactive) and the GI50 [3] was > 100 µM (inactive). The GI50 [4] was > 100 µM (inactive), the GI50 [5] was > 100 µM (inactive) and the GI50 [6] was > 100 µM (inactive). The GI50 [7] was > 100 µM (inactive), the GI50 [8] was > 100 µM (inactive) and the GI50 [9] was > 100 µM (inactive). For the same compound, the GI50 [10] was > 100 µM (inactive), the GI50 [11] was > 100 µM (inactive) and the GI50 [12] was > 100 µM (inactive). For the same compound, the GI50 [13] was > 100 µM (inactive), the GI50 [14] was > 100 µM (inactive) and the GI50 [15] was > 100 µM (inactive). The GI50 [16] was > 100 µM (inactive), the GI50 [17] was > 100 µM (inactive) and the GI50 [18] was > 100 µM (inactive). The GI50 [19] was > 100 µM (inactive), the GI50 [20] was > 100 µM (inactive) and the GI50 [21] was > 100 µM (inactive). For the same compound, the GI50 [22] was > 100 µM, the GI50 [23] was > 100 µM (inactive) and the GI50 [24] was > 100 µM (inactive). For the same compound, the GI50 [25] was > 100 µM (inactive), the GI50 [26] was > 100 µM (inactive) and the GI50 [27] was > 100 µM (inactive). The GI50 [28] was > 100 µM (inactive), the GI50 [29] was > 100 µM (inactive) and the GI50 [30] was > 100 µM (inactive). For the same compound, the GI50 [31] was > 100 µM (inactive), the GI50 [32] was > 100 µM (inactive) and the GI50 [33] was > 100 µM (inactive). The GI50 [34] was > 100 µM (inactive), the GI50 [35] was > 100 µM (inactive) and the GI50 [36] was > 100 µM (inactive). For the same compound, the GI50 [37] was > 100 µM (inactive), the GI50 [38] was > 100 µM (inactive) and the GI50 [39] was > 100 µM (inactive). The GI50 [40] was > 100 µM (inactive), the GI50 [41] was > 100 µM (inactive) and the GI50 [42] was > 100 µM (inactive). The GI50 [43] was > 100 µM (inactive), the GI50 [44] was > 100 µM (inactive) and the GI50 [45] was > 100 µM (inactive). The GI50 [46] was > 100 µM (inactive), the GI50 [47] was > 100 µM (inactive) and the GI50 [48] was > 100 µM (inactive). The GI50 [49] was > 100 µM (inactive), the GI50 [50] was > 100 µM (inactive) and the GI50 [51] was > 100 µM (inactive). For the same compound, the GI50 [52] was > 100 µM (inactive), the GI50 [53] was > 100 µM (inactive) and the GI50 [54] was > 100 µM (inactive). For the same compound, the GI50 [55] was > 100 µM (inactive).

From ChEMBL document CHEMBL1201862, “PubChem BioAssay data set” (2004)
